Source: US10655153B2, “Chemoenzymatic synthesis of peptide beta-lactones and beta-hydroxy acids” (Washington University, priority 2017, dated 2020)
Entries after “also recorded” stand apart in the source; their conditions may differ.

Legend:
[1] = system: E. coli X580; assay: Growth curves of β-lactam hypersensitive E. coli X580; format: cell-based; settings: varying concentrations of RC-Obi
Procedure: (§1) Bacterial strains (E. coli 29522 and E. coli X580) were grown from frozen glycerol stocks in LB media overnight at 37° C. with shaking. These starter cultures were used to inoculate fresh LB broth or M9 minimal media broth at an OD600 of 0.3. Each well of a 96-well plate was filled with 100 μL of sterile media (LB or M9). A sterile solution of RC-Obi or RO-Obi in LB or M9 media was added to the first well of each row and was serially diluted two-fold down the entire row creating a compound concentration gradient of 0.3-0.0025 mM.
(§2) Each well of the plate was then filled with 100 μL of the OD600 0.3 bacterial cell suspensions to give a final volume of 200 μL per well. The plates were incubated at 37° C. and the OD600 of each well was measured every 30 minutes over 24 hours. The plate was shaken briefly prior to each measurement to ensure an even cell suspension. All growth curves were generated in triplicate.
(§3) E. coli ATCC 25922 was passaged in LB broth through 6 overnight cycles in the presence of 0.25 mM RC-Obi β-lactone with fresh doses of antibiotic added every 18 hours for 6 days straight.

[2] = system: Streptococcus pneumonia; settings: reported; cited from earlier work
[3] = previous studies; cited from earlier work
[4] = system: E. coli ATCC 25922; assay: Fluorescence microscopy of fixed cells stained with DAPI and FM 4-64fx; format: cell-based; settings: RC-Obi 0.1 mM, RO-Obi 0.5 mM, 2 hours at 37° C.
Procedure: The E. coli cells were also subjected to fluorescence microscopy after treatment with RC-Obi or RO-Obi. E. coli ATCC 29522 cells were grown in LB media for 8 hours at 37° C. then plated on agar media and incubated overnight at 37° C. A single colony was transferred into test tube with fresh LB media and allowed to grow to 0.3 OD600 at 37° C. Cells were diluted by a factor of 10, allowed to grow to OD600 0.3 again. Aliquots of the cell suspension (2 mL each) were treated with RC-Obi (0.1 mM), RO-Obi (0.5 mM), ampicillin (50 μg/mL), or buffer control and incubated for 2 hours at 37° C. Culture aliquots of 250 μL were then used for staining and fluorescence microscopy. Cell membranes and DNA were labeled with the fixable dyes FM 4-64fx and DAPI, respectively, according to the manufacturer's instructions. Cells were fixed with 2.6% paraformaldehyde+0.008% glutaraldehyde as previously described. Fixed cells were imaged on 1% agarose pads with an Olympus BX51 microscope equipped with a CCD OrcaERG camera (Hamamatsu Photonics, Bridgewater, N.J.), an Olympus Plan N 100X/1.25 Oil Ph3 objective, and an X-Cite 120 LED light source (Lumen Dynamics). Nikon elements were used for image capture using the DAPI and rhodamine filter sets from Chroma. Images were processed using NIS—Elements Basic Research Microscope Imaging Software (Nikon Corp.).

[5] = reported; cited from earlier work
[6] = system: 6× passaged E. coli ATCC 25922; assay: Growth curves of 6× passaged E. coli in the presence of RC-Obi; format: cell-based; settings: 6 overnight cycles in LB broth with 0.25 mM RC-Obi, then varying concentrations in LB broth
Procedure: as §3

[7] = system: E. coli ATCC 25922; assay: Antibiotic susceptibility testing, growth curves by OD600; format: cell-based; settings: for effect on E. coli growth (OD600): 150 μM, M9 minimal media, compared to buffer control
Procedure: as §1, §2

| SMILES | sensitivity compared to E. coli ATCC 29522 [1] | efficacy in murine septicemia model [2] | hydrolysis in aqueous solutions [3] | cell clumping phenotype [4] | antibacterial activity [5] | susceptibility after passaging [6] | effect on E. coli growth (OD600) [7] | time until growth recovered to normal levels ([7]; after treatment with RC-Obi) [h] | effect on E. coli growth (OD600) at various concentrations ([7]; various concentrations of RC-Obi, or buffer control) |
| --- | --- | --- | --- | --- | --- | --- | --- | --- | --- |
| O=C(N[C@@H]1C(=O)O[C@@H]1Cc1ccc([N+](=O)[O-])cc1)c1cccc(O)c1O [RC-Obi, obafluorin] | enhanced sensitivity and slower growth recovery | demonstrated efficacy | hydrolyzes rapidly | induced a cell clumping phenotype; also recorded: severe cell clumping | broad-spectrum antibacterial activity | still susceptible to the antibiotic | inhibited the growth of E. coli; also recorded: halted E. coli growth | ~10 | inhibited the growth of E. coli in a dose-dependent manner |
| O=C(NC(C(=O)O)C(O)Cc1ccc([N+](=O)[O-])cc1)c1cccc(O)c1O (centres unmarked) [RO-Obi] | – | – | – | moderate cell clumping | – | – | minimal effect on E. coli growth | – | – |
